In US20250228756A1, “Anhydrous Urea Emulsions with a Retinoid Agent” (Baek Clinical Inc., priority 2021, published 2025):
Like-named read-outs stand apart in the source and are kept apart here. Blank lines part the entries; values can stand above or below the molecule they belong to.

Assays:
[1] = Assessment of formulation components: solubility in non-aqueous solvents; format: physicochemical
Protocol: A series of experiments were performed to assess and optimize the components of the subject formulations. AA refers to L-ascorbic acid. U refers to urea. % values are wt %.
Additional ingredients were chosen for their compatibility with (e.g., miscibility in) 1,3 propanediol, 1,2 propanediol, and 1,3 butanediol.

[2] = in most solvents; cited from earlier work
skin [3] = conditions: cited from earlier work
skin [4] = conditions: concentrations of 0.2%; clinical data from SEPPIC; cited from earlier work

Molecule: COc1cc(CC(C(C)=O)C(C)=O)ccc1O [Acetyl zingerone]
- solubility ([1]; in 1,3 propanediol, 1,2 propanediol and 1,3 butanediol at the desired concentrations (0.5-1%)): readily soluble

Molecule: O=C(O)CCCCCCCC(=O)O [AzA, Azelaic acid, reference compound]
- change of solubility by the presence of hydroxyethyl urea ([1]; in 1,3 propanediol): slightly increased
- concentration that can be solubilized ([1]; in 1,3 propanediol): up to 10%
- concentration that is possible to solubilize ([1]; with 10% AA, 5% U in a 1,3 propanediol base): 7.5%
- solubility [2]: very poorly soluble

Molecule: CC(C)(CO)[C@@H](O)C(=O)NCCCO [Panthenol]
- concentration at which inhibition of transepidermal water loss is apparent (skin [3]): ≥ 1%

Molecule: Madecassoside
- solubility ([1]; at a concentration of 0.2% in 1,3 propanediol, 1,2 propanediol and 1,3 butanediol): soluble
- ability to reduce erythema (skin redness) (skin [4]): desirable ability to reduce erythema

More lines, now with the values ahead:

- solubility ([1]; in 1,3-propanediol): shows solubility
Molecule: CC1(C)[C@@H](O[C@H]2O[C@H](C(=O)O)[C@@H](O)[C@H](O)[C@H]2O[C@@H]2O[C@H](C(=O)O)[C@@H](O)[C@H](O)[C@H]2O)CC[C@]2(C)[C@H]3C(=O)C=C4[C@@H]5C[C@@](C)(C(=O)O)CC[C@]5(C)CC[C@@]4(C)[C@]3(C)CC[C@@H]12 [glycyrrhizic acid, Glycyrrhizic acid]

- ability of solvent to solubilize urea ([1]; solvent 1,2-hexanediol): moderate
- ability of solvent to solubilize urea ([1]; solvent 1,2-propanediol (propylene glycol)): moderate
- ability of solvent to solubilize urea ([1]; solvent 1,3-butanediol (butylene glycol)): moderate
- ability of solvent to solubilize urea ([1]; solvent 1,3-propanediol): moderate
- ability of solvent to solubilize urea ([1]; solvent 1,5-pentanediol, otherwise referred to as pentylene glycol): moderate
- ability of solvent to solubilize urea ([1]; solvent dimethyl isosorbide): very limited
- ability of solvent to solubilize urea ([1]; solvents glycerin and diglycerin): moderate
Molecule: NC(N)=O [urea]
